From patent US12486298B2, “Fucosyltransferase specific inhibition using fucose mimetics” (THE FLORIDA INTERNATIONAL UNIVERSITY BOARD OF TRUSTEES, priority 2020, dated 2025)
Entries after “also recorded” stand apart in the source; their conditions may differ.

How the values were obtained:
[1] = target: T1, fucosyltransferase IX (FTIX) (Homo sapiens, UniProt Q9Y231); assay: FTIX exofucosylation of RPMI-8402 cells, Le^x by flow cytometry; assay type: cell-based
T1 sequence (Q9Y231 1-359): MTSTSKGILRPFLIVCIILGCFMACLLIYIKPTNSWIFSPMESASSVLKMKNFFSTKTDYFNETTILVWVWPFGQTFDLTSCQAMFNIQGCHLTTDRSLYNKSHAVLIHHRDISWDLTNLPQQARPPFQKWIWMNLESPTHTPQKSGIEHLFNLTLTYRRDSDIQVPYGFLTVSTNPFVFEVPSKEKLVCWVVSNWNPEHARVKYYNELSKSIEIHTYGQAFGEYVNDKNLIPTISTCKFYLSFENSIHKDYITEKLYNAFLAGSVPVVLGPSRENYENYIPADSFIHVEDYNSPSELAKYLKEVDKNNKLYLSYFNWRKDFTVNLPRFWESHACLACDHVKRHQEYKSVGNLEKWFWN
Procedure: (§1) A Canto II (BD Biosciences) flow cytometer was utilized for flow cytometry and the data acquired was analyzed using FlowJo Software (Treestar). Cells were stained using antibodies specific to sLe^X (Alexa-Fluor 488 Mouse Anti-Human CD15s (BD Biosciences)), or Le^X (APC anti-human CD15 (SSEA-1) Antibody (BioLegend)).
(§2) Cells of the RPMI-8402 cell line and MSC cell line were treated with either 0.3 ug of fucosyltransferase VI (FTVI), 2.7 ug of fucosyltransferase VII (FTVII), 1.0 ug fucosyltransferase IX (FTIX) or buffer-only at 37° C. for 60 minutes. All reactions contained at 1×10^6 cells/30 ul in HBSS with 10 mM Hepes, 0.1% Human Serum Albumin, and 1.0 mM GDP fucose (GDP-Fuc) (Carbosynth) and the appropriate fucosytransferase. Then, mimetic 1 was added to each of the treatment groups in molar equivalents with respect to GDP-Fuc with each of the fucosytransferases. […]
(§3) Mimetic 1 (FIG. 1) was tested as an inhibitor of FT-mediated exofucosylation on these cells and the extent of fucosylation was monitored using antibodies that detect the creation of the relevant fucosylated epitopes, i.e., sLe^x or Le^x. […]

[2] = target: T1, fucosyltransferase IX (FTIX); assay: FTIX exofucosylation of mesenchymal stem cells (MSC), Le^x by flow cytometry; assay type: cell-based; conditions: MSCs; same conditions as RPMI-8402 cells
Procedure: as §1, §2, §3

[3] = target: T2, human fucose-binding DC-SIGN lectin (Homo sapiens, UniProt Q9NNX6); assay: Recognition by DC-SIGN lectin
T2 sequence (Q9NNX6 1-404): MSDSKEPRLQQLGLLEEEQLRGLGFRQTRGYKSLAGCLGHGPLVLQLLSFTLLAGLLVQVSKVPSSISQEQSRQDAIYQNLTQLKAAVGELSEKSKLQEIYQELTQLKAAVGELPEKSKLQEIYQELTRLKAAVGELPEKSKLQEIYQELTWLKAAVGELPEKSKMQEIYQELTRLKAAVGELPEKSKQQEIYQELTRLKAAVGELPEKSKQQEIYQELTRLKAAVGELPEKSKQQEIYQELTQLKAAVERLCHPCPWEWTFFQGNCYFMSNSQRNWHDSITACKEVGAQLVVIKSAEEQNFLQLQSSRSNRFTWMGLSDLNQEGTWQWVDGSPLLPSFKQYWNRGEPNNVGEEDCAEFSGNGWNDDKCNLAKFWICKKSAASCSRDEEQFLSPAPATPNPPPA

[4] = target: T3, fucosyltransferase VII (FTVII) (Homo sapiens, UniProt Q11130); assay: FTVII exofucosylation of RPMI-8402 cells, sLe^x by flow cytometry; assay type: cell-based
T3 sequence (Q11130 37-342 limits assumed): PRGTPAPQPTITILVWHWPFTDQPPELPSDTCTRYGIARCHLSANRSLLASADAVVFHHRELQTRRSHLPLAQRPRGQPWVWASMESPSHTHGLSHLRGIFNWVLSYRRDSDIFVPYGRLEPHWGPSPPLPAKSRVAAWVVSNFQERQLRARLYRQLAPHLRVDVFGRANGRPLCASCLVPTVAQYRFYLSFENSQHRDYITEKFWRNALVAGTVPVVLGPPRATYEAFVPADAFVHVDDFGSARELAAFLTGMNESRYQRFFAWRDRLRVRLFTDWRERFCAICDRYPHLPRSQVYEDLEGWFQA
Procedure: as §1
Cells of the RPMI-8402 cell line and MSC cell line were treated with either 0.3 ug of fucosyltransferase VI (FTVI), 2.7 ug of fucosyltransferase VII (FTVII), 1.0 ug fucosyltransferase IX (FTIX) or buffer-only at 37° C. for 60 minutes. All reactions contained at 1×10^6 cells/30 ul in HBSS with 10 mM Hepes, 0.1% Human Serum Albumin, and 1.0 mM GDP fucose (GDP-Fuc) (Carbosynth) and the appropriate fucosytransferase. Then, mimetic 1 was added to each of the treatment groups in molar equivalents with respect to GDP-Fuc with each of the fucosytransferases. The treatment groups were as follows: 1:1 GDP-Fuc to mimetic 1 (i.e., 1.0 mM GDP-Fuc and 1.0 mM mimetic), 1:2 GDP-Fuc to mimetic 1 (i.e., 1.0 mM GDP-Fuc and 2.0 mM mimetic), or preincubated in presence of FT with a 2.0 mM solution of the mimetic 1 for 45 minutes followed by addition of a 1.0 mM solution of GDP-Fuc for 1 hour. Concentrations of the various FTs were utilized that would maximize the MFI to allow the detection of the efficacy of mimetic 1 to inhibit the various enzymes.
Exofucosylation is a technique whereby a pertinent FT together with GDP-Fuc is placed in a cell suspension to stereoselectively install fucose on pertinent acceptor cell surface glycan(s). For the case of α-1,3-FTs, this approach provides the ability to pinpoint the effect(s) of mimetic addition on creation of fucosylated glycans Le^x and sLe^x, while keeping the rest of the cell's biological functions and its viability intact. Specifically, this study focused on three α-1,3-FTs that can create sLe^x and Le^x determinants: FTVII, FTIX, and FTVI. To assess enzymatic activity, two cell types were utilized, the human lymphoblastic leukemia cell line RPMI-8402 and human mesenchymal stem cells (MSCs).
Mimetic 1 (FIG. 1) was tested as an inhibitor of FT-mediated exofucosylation on these cells and the extent of fucosylation was monitored using antibodies that detect the creation of the relevant fucosylated epitopes, i.e., sLe^x or Le^x. Cells were treated directly with reaction buffer containing the relevant FTs together with 1.0 mM GDP-Fuc and cells untreated with FTs (UT) were used as reference reaction negative control (FIGS. 2A, 2B, 2C, 3, 4A and 4B). […]
Moreover, a pre-incubation protocol was also analyzed, wherein the cell suspension was pre-treated with FTVII and a 2.0 mM solution of mimetic 1 followed by addition of 1.0 mM solution of GDP-Fuc (Pre).

[5] = RPMI-8402 cells, 1.0 mM GDP-Fuc with 1.0 mM or 2.0 mM mimetic 1

effect of pre-incubation on FTIX-mediated exofucosylation ([1]; pre-incubation with 2.0 mM mimetic 1 prior to addition of GDP-Fuc): no effect
inhibition of FTIX production of Le^x [2]: did not inhibit FTIX production of Le^x
recognition by DC-SIGN lectin [3]: not recognized
concentration of highest inhibition against FTVII ([4]; titration of mimetic 1, 1.0 mM GDP-Fuc, RPMI-8402 cells, bell-shaped curve): 2.0 mM
Structure (SMILES): CC1OC2Oc3ccc(CC(=O)O)cc3SC2C(O)C1O (centres unmarked) [mimetic 1]
inhibition of FTIX-mediated exofucosylation (Le^x creation) [1, 5]: did not inhibit FTIX-mediated exofucosylation
inhibition of FTVII-driven sLe^x expression [4, 5]: able to inhibit FTVII-driven sLe^x expression
extent of inhibition, FTVII compared with FTVI ([4]; at 2.0 mM mimetic 1, 1.0 mM GDP-Fuc): slightly higher extent of inhibition on FTVII over FTVI
inhibition of FTVII sLe^x production after pre-incubation ([4]; pre-incubation of FTVII with 2.0 mM mimetic 1 for 45 minutes, then 1.0 mM GDP-Fuc for 1 hour): significant inhibition of sLe^x production; also recorded: inhibited more completely
